In patent US10208074B2, “Pyrazole compounds and method for making and using the compounds” (Rigel Pharmaceuticals, Inc., priority 2015, dated 2019) one finds EC50 data, which are given here for 18 compounds.

Molecules are shown by their SMILES. Where a name gives a salt, the structure may show the parent alone. Read-outs that look alike come from different tables or passages of the source.

For one assay, the system named is IL-23 (p19/p40). Nature of the assay: IL23-p19 ELISA, Dendritic, LPS (compound screening using DC cells). The class given is cell-based, Human. As to conditions: PBMC-derived DC cells, IFNγ primed, LPS 1 μg/ml, 18 hours, 10 pt, read-out: IL23-p19 ELISA, Dendritic, LPS, 10 pt, EC50. The method, then:
Compound Screening Using DC Cells
Human PBMC cells (400 million) obtained from the vendor were transferred into a T-175 flask containing 15 ml RPMI media (10% FBS) and incubate for 2 hours at 37° C. After 2 hours, the media including floating cells was aspirated out carefully and 12 ml of fresh RPMI media (10% FBS) containing GMCSF (100 ng/ml) and IL4 (20 ng/ml) was added, and the flask was kept in a 37° C. incubator for 7 days.
After 3 days, fresh GMCSF (100 ng/ml) and IL4 (20 ng/ml) were added to the flask and the incubation continued. After 7 days, the fully differentiated cells were harvested by spinning down (1200 rpm/5 min) and aspirating the media. The cells were suspended in fresh RPMI media (10% FBS) containing 50 ng/ml IFNγ (1000 U/ml) and then plated (50K/well in 100 μl) onto a white clear bottom 96 well plate and left in a 37° C. incubator for 24 hours.
After 24 hours incubation, 100 μl of RPMI media was added containing 2× concentrated test compound per well to the above cell-culture media (final concentration becomes 1×) and the plates were pre-incubated for 1 hour at 37° C. before stimulating with LPS.
After 1 hour compound pre-incubation, 10 piper well of 20× concentrated LPS solution in RPMI media was added to give a final concentration of 1 μg/ml. The mixture was shaken and incubated the plates at 37° C. for an additional 18 hours.
155 μl of the supernatant was harvested from each well carefully (without the tip touching the bottom of the well) and to the remaining 50 μl/well of the cell culture plate was added 50 μl of Cell Titer Glo reagent. The mixture was incubated for 1-2 minutes on a shaker and the plate was read for luminescence intensity to determine the compound cytotoxicity. The cell culture supernatant collected above was used to carry out IL23 ELISA (65 μl -Supernatant) and IL10 ELISA (90 μl—Supernatant) as described below.
Human IL-23 (p19/p40) ELISA Protocol (e-Biosciences)
To 10.5 ml PBS add 50 μl of anti-IL23 (p19) was added capture antibody (2.5 μg/ml). The mixture was mixed well and 100 μl of the coating solution was added to each well of the 96 well white plates from Pierce. The wells were covered and incubated overnight at 4° C.
The anti-IL23 (p19)-antibody-coated plates were washed 2× using TBST (use plate washer) and blocked using 200 μl of 0.5% Casein for 1.5-2 hours at room temperature with shaking.
The plates were washed 2× using TBST and the supernatant was transferred (65 μl/well) to the above pre-blocked/IL23(p19)-antibody-coated 96 well plate, and incubated at room temperature for 1.5 hours with shaking.
The plates were washed 4× using TBST (plate washer) and 100 μl/well detection antibody solution prepared from 2 μl of biotin labeled anti-IL-12 (p40/p70) antibody in 11 ml 1% BSA/PBS solution (1-5000 dilution) was added. The plates were incubated for 1 hour with shaking at Room temperature.
Again, the plates were washed 4× with TBST and 100 μl of HRP labeled Streptavidin (R&D Systems) solution (10 μl/10 ml 1% BSA solution) was added, and the plates were incubated at room temperature for another 45 minutes with shaking.
After 45 minutes, the plates were washed with TBST 4× and 100 ul/well Super Signal ELISA Pico Chemiluminescent Substrate from Pierce (3.5 ml A+3.5 ml B+3.5 ml MQ water) was added. The plates were shaken for 1-2 minutes then read on a plate reader.

A further assay deals with IL-23p19. Nature of the assay: LPS induced IL23p19 in THP-1 cells (with IFNγ primed) assay. Format: cell-based, Human. Particulars: THP-1 cells, IFNγ primed, LPS 1 ug/mL, 18 hours, 10 pt, read-out: IL23-p19 ELISA, THP1-IFNy, LPS, 10 pt EC50. In short, it runs like this:
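Readout is secreted IL-23p19, quantified by chemiluminescent sandwich ELISA after 18 h LPS (1 ug/mL) stimulation of THP-1 cells that had been IFNγ-primed (50 ng/mL, ~18 h) and given compound 1 h beforehand at 37 °C. EC50 derived by curve fit; cytotoxicity tracked with Cell Titer Glo.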

Regarding `COCCn1cc(NC(=O)c2ccc(-c3cnn(C(=O)[C@@H](NC(=O)OC(C)(C)C)C(C)C)c3)o2)c(-c2ccccn2)n1` [Compound I-20, tert-butyl (S)-(1-(4-(5-((1-(2-methoxyethyl)-3-(pyridin-2-yl)-1H-pyrazol-4-yl)carbamoyl)furan-2-yl)-1H-pyrazol-1-yl)-3-methyl-1-oxobutan-2-yl)carbamate], the EC50 with IL-23 (p19/p40) (Homo sapiens, 18 h) stood at 194 nM; with IL-23p19 (Homo sapiens, THP-1, 18 h), 167 nM.

Regarding `COCCn1cc(NC(=O)c2ccc(-c3cnn(C(=O)OC4(C)CC4)c3)o2)c(-c2ccccn2)n1` [Compound I-21, 1-methylcyclopropyl 4-(5-((1-(2-methoxyethyl)-3-(pyridin-2-yl)-1H-pyrazol-4-yl)carbamoyl)furan-2-yl)-1H-pyrazole-1-carboxylate], the EC50 was determined as 458 nM in the assay with IL-23 (p19/p40) (Homo sapiens, 18 h) and 201 nM in the assay with IL-23p19 (Homo sapiens, THP-1, 18 h).

With `COCCn1cc(NC(=O)c2ccc(-c3cnn(C(=O)OC(C)(C)COCc4ccc(OC)cc4)c3)o2)c(-c2ccccn2)n1` [Compound I-22, 1-((4-methoxybenzyl)oxy)-2-methylpropan-2-yl 4-(5-((1-(2-methoxyethyl)-3-(pyridin-2-yl)-1H-pyrazol-4-yl)carbamoyl)furan-2-yl)-1H-pyrazole-1-carboxylate], the 50% effective concentration (EC50) with IL-23 (p19/p40) (Homo sapiens, 18 h) is 1550 nM; with IL-23p19 (Homo sapiens, THP-1, 18 h) it was 204 nM.

Turning to `O=C(Nc1cn(C2CCOCC2)nc1-c1ccccn1)c1ccc(-c2cn[nH]c2)o1` [Compound I-23, 5-(1H-pyrazol-4-yl)-N-(3-(pyridin-2-yl)-1-(tetrahydro-2H-pyran-4-yl)-1H-pyrazol-4-yl)furan-2-carboxamide], the EC50 was 37.2 nM in the assay on IL-23 (p19/p40) (Homo sapiens, 18 h) and 21.7 nM in the assay with IL-23p19 (Homo sapiens, THP-1, 18 h).

Take `O=C(Nc1cn(C2COC2)nc1-c1ccccn1)c1ccc(-c2cn[nH]c2)o1` [Compound I-25, N-(1-(oxetan-3-yl)-3-(pyridin-2-yl)-1H-pyrazol-4-yl)-5-(1H-pyrazol-4-yl)furan-2-carboxamide]: the 50% effective concentration (EC50) in the assay with IL-23 (p19/p40) (Homo sapiens, 18 h) came out at 44.1 nM; in the assay on IL-23p19 (Homo sapiens, THP-1, 18 h) it was 57.1 nM.

In the case of `Cn1cc(-c2ccc(C(=O)Nc3cn(C4COC4)nc3-c3ccccn3)o2)cn1` [Compound I-26, 5-(1-methyl-1H-pyrazol-4-yl)-N-(1-(oxetan-3-yl)-3-(pyridin-2-yl)-1H-pyrazol-4-yl)furan-2-carboxamide], the EC50 stood at 276 nM in the assay on IL-23 (p19/p40) (Homo sapiens, 18 h) and 1320 nM in the assay on IL-23p19 (Homo sapiens, THP-1, 18 h).

Consider `CCO[C@H]1C[C@H](n2cc(NC(=O)c3ccc(-c4cn[nH]c4)o3)c(-c3ccccn3)n2)C1` [Compound I-27, N-(1-((1,3-trans)-3-ethoxycyclobutyl)-3-(pyridin-2-yl)-1H-pyrazol-4-yl)-5-(1H-pyrazol-4-yl)furan-2-carboxamide], for which the 50% effective concentration (EC50) in the assay on IL-23 (p19/p40) (Homo sapiens, 18 h) came out at 15.8 nM; in the assay on IL-23p19 (Homo sapiens, THP-1, 18 h) it was 159 nM.

As for `CCO[C@H]1C[C@@H](n2cc(NC(=O)c3ccc(-c4cn[nH]c4)o3)c(-c3ccccn3)n2)C1` [Compound I-28, N-(1-((1,3-cis)-3-ethoxycyclobutyl)-3-(pyridin-2-yl)-1H-pyrazol-4-yl)-5-(1H-pyrazol-4-yl)furan-2-carboxamide], the 50% effective concentration (EC50) in the assay with IL-23 (p19/p40) (Homo sapiens, 18 h) turned out to be 21.8 nM; in the assay on IL-23p19 (Homo sapiens, THP-1, 18 h) it was 49.7 nM.

Turning to `CCO[C@H]1C[C@@H](n2cc(NC(=O)c3ccc(-c4c[nH]nc4C)o3)c(-c3ccccn3)n2)C1` [Compound I-29, N-(1-((1,3-cis)-3-ethoxycyclobutyl)-3-(pyridin-2-yl)-1H-pyrazol-4-yl)-5-(3-methyl-1H-pyrazol-4-yl)furan-2-carboxamide], the EC50 came out at 97.2 nM with IL-23 (p19/p40) (Homo sapiens, 18 h) and 206 nM in the assay on IL-23p19 (Homo sapiens, THP-1, 18 h).

On to `Cc1n[nH]cc1-c1ccc(C(=O)Nc2cn(C3COC3)nc2-c2ccccn2)o1` [Compound I-30, 5-(3-methyl-1H-pyrazol-4-yl)-N-(1-(oxetan-3-yl)-3-(pyridin-2-yl)-1H-pyrazol-4-yl)furan-2-carboxamide], for which the EC50 with IL-23 (p19/p40) (Homo sapiens, 18 h) stood at 58.9 nM; with IL-23p19 (Homo sapiens, THP-1, 18 h), 38 nM.

For the compound `CCO[C@H]1C[C@@H](n2cc(NC(=O)c3ccc(-c4cnn(C)c4)o3)c(-c3ccccn3)n2)C1` [Compound I-31, N-(1-((1,3-cis)-3-ethoxycyclobutyl)-3-(pyridin-2-yl)-1H-pyrazol-4-yl)-5-(1-methyl-1H-pyrazol-4-yl)furan-2-carboxamide], the EC50 turned out to be 1250 nM in the assay with IL-23 (p19/p40) (Homo sapiens, 18 h) and 6290 nM with IL-23p19 (Homo sapiens, THP-1, 18 h).

For the compound `O=C(Nc1cn([C@H]2C[C@@H](O)C2)nc1-c1ccccn1)c1ccc(-c2cn[nH]c2)o1` [Compound I-32, N-(1-((1,3-cis)-3-hydroxycyclobutyl)-3-(pyridin-2-yl)-1H-pyrazol-4-yl)-5-(1H-pyrazol-4-yl)furan-2-carboxamide], the EC50 is 83 nM with IL-23 (p19/p40) (Homo sapiens, 18 h) and 28.8 nM in the assay on IL-23p19 (Homo sapiens, THP-1, 18 h).

With `CN(C)[C@H]1C[C@@H](n2cc(NC(=O)c3ccc(-c4cn[nH]c4)o3)c(-c3ccccn3)n2)C1` [Compound I-34, N-(1-((1s,3s)-3-(dimethylamino)cyclobutyl)-3-(pyridin-2-yl)-1H-pyrazol-4-yl)-5-(1H-pyrazol-4-yl)furan-2-carboxamide formate], the EC50 in the assay on IL-23 (p19/p40) (Homo sapiens, 18 h) was 14.4 nM; in the assay with IL-23p19 (Homo sapiens, THP-1, 18 h), 13.8 nM.

For `CCO[C@H]1C[C@@H](n2cc(NC(=O)c3ccc(-c4cnn(COP(=O)(O)O)c4)o3)c(-c3ccccn3)n2)C1` [Compound I-35, (4-(5-((1-((1,3-cis)-3-ethoxycyclobutyl)-3-(pyridin-2-yl)-1H-pyrazol-4-yl)carbamoyl)furan-2-yl)-1H-pyrazol-1-yl)methyl phosphate bis-sodium salt], the EC50 amounted to 520 nM with IL-23 (p19/p40) (Homo sapiens, 18 h) and 63.3 nM in the assay on IL-23p19 (Homo sapiens, THP-1, 18 h).

Consider `CCOCCn1cc(NC(=O)c2ccc(-c3cn[nH]c3)o2)c(-c2ccccn2)n1` [Compound I-37, N-(1-(2-ethoxyethyl)-3-(pyridin-2-yl)-1H-pyrazol-4-yl)-5-(1H-pyrazol-4-yl)furan-2-carboxamide formate], for which the EC50 with IL-23 (p19/p40) (formate) was 17.4 nM; in the assay on IL-23p19 (Homo sapiens, THP-1, 18 h), 144 nM.

With `CCOCCn1cc(NC(=O)c2ccc(-c3cn[nH]c3)o2)c(-c2ccccn2)n1` [Compound I-38, N-(1-(2-ethoxyethyl)-3-(pyridin-2-yl)-1H-pyrazol-4-yl)-5-(1H-pyrazol-4-yl)furan-2-carboxamide], the EC50 turned out to be 58.2 nM in the assay with IL-23 (p19/p40) and 172 nM in the assay on IL-23p19.

In the case of `CCOCCn1cc(NC(=O)c2ccc(-c3cnn(CC)c3)o2)c(-c2ccccn2)n1` [Compound I-39, N-(1-(2-ethoxyethyl)-3-(pyridin-2-yl)-1H-pyrazol-4-yl)-5-(1-ethyl-1H-pyrazol-4-yl)furan-2-carboxamide formate], the EC50 in the assay with IL-23 (p19/p40) (Homo sapiens, 18 h) came to 4320 nM; in the assay with IL-23p19 (Homo sapiens, THP-1, 18 h) it was 1950 nM.

On to `CCOCCn1cc(NC(=O)c2ccc(-c3c[nH]nc3C(F)(F)F)o2)c(-c2ccccn2)n1` [Compound I-41, N-(1-(2-ethoxyethyl)-3-(pyridin-2-yl)-1H-pyrazol-4-yl)-5-(3-(trifluoromethyl)-1H-pyrazol-4-yl)furan-2-carboxamide formate], for which the EC50 in the assay with IL-23 (p19/p40) (Homo sapiens, 18 h) was determined as 3940 nM; with IL-23p19 (Homo sapiens, THP-1, 18 h), 2570 nM.
